This is an account of results in patent publication US12297210B2, “Naphthyridine compounds and uses thereof” (Genentech, Inc., priority 2018, dated 2025).

Assay [1] concerns the target T1, HPK full length, T165E S171E (Homo sapiens, UniProt Q92918, S171E/T165E).
T1 construct: HPK full length, T165E S171E: 0.125 nM
Kind of assay: HPK1-FL HTRF Enzymatic Assay ("HTRF"). The class given is biochemical. To be noted: ATP 1 mM, read-out: HPK1 Ki (nM) H = HTRF. The procedure:
Example B1: HPK1-FL HTRF Enzymatic Assay (“HTRF”)
HPK-FL enzyme phosphorylates Biotin-SLP-76 substrate in the presence of ATP at 1 mM and varying concentrations of test compound. Product is detected by FRET using Eu-anti-pSLP76 Ab and SA-XL665. Also see www.cisbio.com/HTRF for additional HTRF technology information.
• Echo555 compound dispenser • Agilent Bravo • Perkin Elmer Envision Final Assay Conditions: • HPK full length, T165E S171E: 0.125 nM • Biotin-SLP76: 100 nM • ATP: 1 mM (ATP Km=20 μM) • Eu-anti-pSLP76: 2 nM • SA-XL665: 8.3 nM • Preincubation time: 30 min • Kinase reaction time: 60 min • Temperature: ambient • Total volume: 12 μl • ATP^app Km: 17.7 μM Materials: • Assay plate: White ProxiPlate 384 F (PerkinElmer cat #6008289) • Kinase: HPK full length double mutant • Substrate: Biotin-SLP76 • ATP: 100 mM ATP • BSG: 2% BSG • DMSO: DMSO(Sigma cat #34869-100ML) • Reaction Buffer: H2O/50 mM HEPES, pH 7.5/10 mM MgCl2/2 mM TCEP/0.01% Brij-35/0.01% BSG • Detection mix: Eu-anti-pSLP76/SA-XL665 (Cisbio, #610SAXAC) Assay Procedure Ki Determination:
To a 384 well Proxiplate with 80 nL compound or DMSO spotted on was added 4 μl/well kinase mix. The mixture was preincubated for 30 minutes and then 4 μl/well substrate mix was added. The solution was incubated for 60 min and then 4 μl/well detection mix was added. The solution was incubated for another 60 min. The plates were then loaded onto a Perkin Elmer Envision and the TR-FRET signal was measured at 615 and 665 nm. A ratio of […] was used to calculate the % activity at each concentration of compound.
A general note: In TR-FRET formats the signal depends on donor and acceptor labels being close together.

In assay [2] the test system is primary human pan T cells. The assay can be described thus: Human T-Cell IL2 Induction Assay. The assay is classed as cell-based. To be noted: assayed concentration 0.31 μM; anti-CD3/anti-CD28 stimulated primary human pan T cells. The procedure: Example B3: Human T-Cell IL2 Induction Assay
Anti-CD3 and anti-CD28 activates TCR signaling in primary human pan T cells leading to IL-2 promoter induction. Secreted IL-2 in cell culture supernatant is detected by electrochemiluminescence using a capture antibody against IL-2 and an anti-IL-2 antibody labeled with SULFO-tag.
Incubate primary human pan T cells with varying concentrations of test compounds for 30 minutes in a humidified incubator at 37° C. and 5% CO2. Transfer cells to a plate pre-coated with a fixed concentration of anti-human CD3 (determined separately for each donor lot) and add soluble anti-human CD28 (final concentration=1 μg/ml). Stimulate cells in a humidified incubator at 37° C. and 5% CO2 for 4 hours. Transfer 25 μl of supernatant to a MSD single spot plate pre-coated with an anti-human IL-2 antibody. Incubate MSD plate overnight at 4° C. with gentle shaking. Wash MSD plate 4× with wash buffer. Add SULFO-tagged detection antibody at a 1:50 dilution and incubate at room temperature shaking for 2 hours. Wash MSD plate 4× with wash buffer and add 150 μl 2×MSD read buffer. Read on an MSD instrument. […]
Exemplary compounds of Formula (I) were tested in the human T-cell IL-2 induction assays. The % increase measured for IL-2 in cells treated by the test compounds relative to untreated cells are provided in Table B2 for certain compounds.

Molecules are shown by their SMILES.

T1 sequence (Q92918 whole entry T165E/S171E): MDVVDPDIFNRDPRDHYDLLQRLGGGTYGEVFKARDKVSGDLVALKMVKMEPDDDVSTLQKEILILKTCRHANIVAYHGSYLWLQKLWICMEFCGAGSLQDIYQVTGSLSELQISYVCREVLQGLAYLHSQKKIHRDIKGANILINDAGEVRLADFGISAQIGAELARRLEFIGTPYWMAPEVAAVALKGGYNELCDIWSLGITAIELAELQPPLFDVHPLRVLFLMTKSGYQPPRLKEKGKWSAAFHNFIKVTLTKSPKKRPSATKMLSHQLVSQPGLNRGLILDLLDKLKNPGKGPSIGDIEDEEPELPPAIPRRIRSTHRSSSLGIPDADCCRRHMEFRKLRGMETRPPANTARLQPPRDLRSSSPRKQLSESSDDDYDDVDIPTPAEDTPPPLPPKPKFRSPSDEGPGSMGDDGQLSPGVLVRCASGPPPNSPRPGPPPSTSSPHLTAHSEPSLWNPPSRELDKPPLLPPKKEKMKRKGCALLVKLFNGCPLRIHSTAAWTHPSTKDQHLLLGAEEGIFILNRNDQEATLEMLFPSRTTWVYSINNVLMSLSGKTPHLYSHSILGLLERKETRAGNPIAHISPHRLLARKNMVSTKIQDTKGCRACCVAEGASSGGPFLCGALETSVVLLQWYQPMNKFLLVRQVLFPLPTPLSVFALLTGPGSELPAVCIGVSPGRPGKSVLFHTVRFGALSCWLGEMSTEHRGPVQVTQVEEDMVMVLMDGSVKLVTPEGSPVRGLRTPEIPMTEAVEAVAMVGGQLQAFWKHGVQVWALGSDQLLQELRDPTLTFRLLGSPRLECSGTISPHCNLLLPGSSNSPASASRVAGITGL

The Ki is a dissociation constant, usually derived from enzyme kinetics or from competition with a known ligand. With `Cc1c(N)cncc1-c1cc2cc(Nc3cc4n(n3)CC(=O)N(C)CC43CC3)ncc2c(C)n1` [Compound 101, 2′-((6-(5-amino-4-methylpyridin-3-yl)-8-methyl-2,7-naphthyridin-3-yl)amino)-6′-methyl-5′,6′-dihydrospiro[cyclopropane-1,4′-pyrazolo[1,5-d][1,4]diazepin]-7′(8′H)-one], the Ki in assay [1] came out at 0.27 nM. In addition, the “% IL-2 increase relative to untreated cells” value in assay [2] is reported as 421%.
